Experiments:
[1] = tested on: interperitoneal P388 leukemia; details: in vivo; cited from earlier work
[2] = Deaths of tumor bearing mice at larger doses; type: in vivo; details: doses significantly larger than in the table (20–25 μg/kg)
[3] = tested on: cells derived from human colon carcinoma; assay: in vitro tumor growth suppression, cells derived from human colon carcinoma; type: cell-based; details: specific human cancer cell lines
Excerpt: When the non-radioactive analogue of the gold complex of THP [(Au(THP)4)]

[4] = Side effects in mice models; type: in vivo; details: preliminary findings
HCT-15 cells = assay: Histogram (cell cycle) studies; type: cell-based; details: 200 or 40 μg/ml, two days incubation
Procedure: Histogram studies were carried out using HCT-15 cells. In the enclosed figure that summarize histogram results the cells are numbered as follows: HCT-80 is the control; HCT-81 refers to a sample with 200 μg/ml of the gold compound; HCT-82 refers to a sample with 40 μg/ml of gold compound.
HCT-15 cells were incubated in 5% CO2 incubator for two days. Then the cells were harvested and analyzed using fluorescent techniques. […] This finding is in sharp contrast to he cytotoxic side effects of cisplatin which is known to cause disassociation of many phases. Additionally, most agents which are cytotoxic, block S or M+G2 phase after culturing for two days. The mode of cell suppression via G1 phase elongation, as observed for the gold compound, therefore functions differently.

Meth/A cells = assay: In vivo study, survival of Meth/A tumor bearing mice; parameters: species or system Balb/C mice
[5] = in vivo; cited from earlier work
solid tumor models = details: in vivo; cited from earlier work
peritoneal cancer cells = details: in vivo; cited from earlier work

Structure (SMILES): CC[PH](CC)(CC)[Au][S][C@@H]1O[C@H](COC(C)=O)[C@@H](OC(C)=O)[C@H](OC(C)=O)[C@H]1OC(C)=O [Auranofin, (2,3,4,6-tetra-O-aceytl-1-thio-β-D-glucopyranosato-S)-(triethylphosphine) gold(I)]
- activity against interperitoneal P388 leukemia [1]: active

Structure (SMILES): N.N.[Cl][Pt][Cl] [Cisplatin, cisplatin]
- deaths of tumor bearing mice [2]: resulted in the death of animals

Structure (SMILES): OCP(CO)CO.OCP(CO)CO.OCP(CO)CO.OCP(CO)CO.[Au+].[Cl-] [[Au(THP)4]Cl]
- tumor cell suppression [3]: remarkable activity in suppressing tumor growth
- toxic side effects [4]: no toxic cardiovascular or naphrotoxic side effects
- deaths of tumor bearing mice [2]: did not result in deaths of tumor bearing mice
- effect on G1 phase of the cell cycle (HCT-15 cells): elongates G1 phase
- survival of tumor bearing mice (Meth/A cells): remarkable survival of tumor bearing mice

Structure (SMILES): [Au+].[Cl-].c1ccc(P(CCP(c2ccccc2)c2ccccc2)c2ccccc2)cc1.c1ccc(P(CCP(c2ccccc2)c2ccccc2)c2ccccc2)cc1 [[Au(dppe)2]Cl]
- toxicity in preclinical toxicology studies [5]: cardiotoxicity
- activity against solid tumor models (solid tumor models): only slightly active
- activity against peritoneal cancer cells (peritoneal cancer cells): marked activity

Source: patent US6989158B1, “Gold-containing chemotherapeutic agents” (The Curators of the University of Missouri, priority 1999, dated 2006)
